Reference: patent US6569404B1, “Phase shift colloids as ultrasound contrast agents” (priority 1993, dated 2003)
Where “and” joins values, the source holds several entries; their conditions need not be identical. Identical values can stand only once.

experiment: Acoustic backscatter: gray scale intensity (videodensity) in water beaker at 37° C., Hewlett Packard 77020 scanner, 5.0 MHz; settings: emulsion with Fluorad 170 C; 0.2 mL in 1000 mL water at 37° C.; six seconds; backgrounds 2.9, 3.0, 3.6
Method: Two solutions were prepared to simulate the administration to an organism of either a colloidal dispersion of a low boiling liquid or the liquid, neat.
The emulsions contained Fluorad 170 C as surfactant and were formed by applying acoustic energy from a waterbath sonicator.

Structure (SMILES)	grayscale intensity
FC1(F)C(F)(F)C(F)(F)C(F)(F)C1(F)F [perfluorocyclopentane]	158.9 units

experiment: Backscatter persistence and intensity of 2% mixtures in saline, 1000 mL water at 37° C., Hewlett-Packard 77020A; settings: 2% in saline, 1.0 mL in 1000 mL water at 37° C.; saline+air set as 1
Method: The following emulsions were formulated and tested according to methods described in Example 18.
All solutions were made as a 2% solution in saline. A volume of 0.1 cc of each chemical was comminuted with 5 cc saline through a 3-way stopcock for 25 passes. A volume of 1.0 mL of the mixture was immediately injected through a 1.2 μm filter into a stirring water bath containing 1000 mL water at 37° C. The resulting backscatter was then recorded with the use of a Hewlett-Packard 77020A Ultrasound System at […].

Structure (SMILES)	Ratio of Persistence
ClCCCl [1,2, Dichloroethane, reference compound]	6
CCCCCCCCC [Nonane]	9
FC(F)(F)C(Cl)Br (stereo not shown) [Halothane]	6
FC1(F)C(F)(F)C(F)(F)C2(F)C(F)(F)C(F)(F)C(F)(F)C(F)(F)C2(F)C1(F)F (stereo not shown) [Perfluorodecalin]	9

same assay, conditions: backscatter intensity qualitatively ranked from 0 to 5

Structure (SMILES)	Ratio of Intensity
ClCCCl [1,2, Dichloroethane, reference compound]	0.25
CCCCCCCCC [Nonane]	0.5
FC(F)(F)C(Cl)Br (stereo not shown) [Halothane]	0.25
FC1(F)C(F)(F)C(F)(F)C2(F)C(F)(F)C(F)(F)C(F)(F)C(F)(F)C2(F)C1(F)F (stereo not shown) [Perfluorodecalin]	2.0

experiment: not given; settings: Chemical List of low boiling liquids, Example 45; cited from earlier work

Structure (SMILES)	Boiling Point
FC(F)(F)I [Methane, iodo-trifluoro]	−22.5 degrees Celcius
C=CCCC [Example 1-Pentene, 1-Pentene]	30.0 degrees Celcius
FC(Cl)(Cl)Cl [Methane, trichlorofluoro]	23.7 degrees Celcius
C=COC=C [Vinyl ether]	28.0 degrees Celcius
C [Methane]	−164.0 degrees Celcius
FC(F)=C(F)C(F)=C(F)F [1,3-Butadiene, hexafluoro]	6.0 degrees Celcius
C#CCC [Example 1-Butyne, 1-Butyne]	8.1 degrees Celcius
O=C(Cl)c1c(Cl)c(Cl)c(Cl)c(Cl)c1Cl [Benzoyl chloride, pentachloro]	5.0 degrees Celcius
CON=O [Methyl nitrite]	−12.0 degrees Celcius
CCON=O [Ethyl nitrite]	16.0 degrees Celcius
C=C=CC [1,2-Butadiene]	10.8 degrees Celcius
O=C=S [Carbonyl sulfide]	−50.0 degrees Celcius
[SiH3]C[SiH3] [Methane, disilano]	14.7 degrees Celcius
O=C(C(F)(F)F)C(F)(F)F [Acetone, hexafluoro]	−28.0 degrees Celcius
FC(Cl)Br (stereo not shown) [Methane, bromo-chloro-fluoro]	36.0 degrees Celcius
CS [Methanethiol]	62 degrees Celcius
FC(F)=C(F)C(F)(F)C(F)(F)C(F)(F)F [1-Pentene, perfluoro]	29.0 degrees Celcius
FC(=C(F)C(F)(F)F)C(F)(F)F [2-Butene, perfluoro]	0.0 degrees Celcius
C#CC=C [Vinyl acetylene]	5.1 degrees Celcius
O=C=O [Carbon dioxide]	−78.6 degrees Celcius
O=[N+]([O-])C(F)(F)Cl [Methane, chloro difluoro nitro]	25.0 degrees Celcius
[Ne] [Neon]	−246.0 degrees Celcius

Structure (SMILES)	Boiling Point
O=NC(F)(F)F [Methane, nitroso-trifluoro]	−84.0 degrees Celcius
C#CC [Propyne]	−23.2 degrees Celcius
COC.Cl [Dimethyloxonium chloride]	−2.0 degrees Celcius
CCC1CC1 [Cyclopropane, ethyl]	34.5 degrees Celcius
FC(F)(F)C#CC(F)(F)F [2-Butyne, perfluoro]	−24.6 degrees Celcius
COC(C)C [Methyl isopropyl ether]	32.5 degrees Celcius
CC#CC [Example 2-Butyne, 2-Butyne]	27.0 degrees Celcius
CC(C)(C)C [Neopentane]	9.5 degrees Celcius
FC(F)(Cl)Cl [Methane, dichloro difluoro]	−29.8 degrees Celcius
N#N [Nitrogen (N2)]	−196.0 degrees Celcius
FC(F)(F)Cl [Methane, chloro trifluoro]	−81.4 degrees Celcius
CI [Methane, iodo-]	42.4 degrees Celcius
COC [Methyl ether]	−25.0 degrees Celcius
C#CCCC#CC [1,5-Heptadiyne]	26.0 degrees Celcius
FC(F)(F)Br [Methane, bromo-trifluoro]	−57.9 degrees Celcius
Cc1cc2ccccc2c2cc3ccccc3cc12 [1,2-Benzanthracene, 4-methyl]	1.0 degrees Celcius
CCNC [Ethyl methyl amine]	36.7 degrees Celcius
FC(F)(F)F [Methane, tetrafluoro]	−129.0 degrees Celcius
C=COCC [Ethyl vinyl ether]	35.0 degrees Celcius
O=S(=O)(Cl)C(F)(F)F [Methane sulfonyl chloride, trifluoro]	31.6 degrees Celcius
C=C(C)C [Isobutylene]	−6.9 degrees Celcius
FCCl [Methane, chloro fluoro]	−9.1 degrees Celcius

same assay, conditions: boiling point under standard pressure conditions; chemical list arranged by total atoms; cited from earlier work

Structure (SMILES)	Boiling Point
C=C(C)C(F)(F)F [3,3,3-trifluoro-2-methyl-propene]	6 degrees Celcius
C=C(C)C(F)F [3,3 difluoro-2-methyl-propene]	28.1 degrees Celcius
CC(C)C(F)(F)F [Example 2-Trifluoromethyl-propane, 2-Trifluoromethyl-propane]	13 degrees Celcius
CCN(C)C [ethyl-dimethyl-amine]	36.4 degrees Celcius
CCOC [ethyl-methyl ether]	6.6 degrees Celcius
COCC(F)(F)F [1,1,1-trifluoro-2-methoxy-ethane]	31 degrees Celcius
CSC [dimethyl sulfide]	36 degrees Celcius
FC(F)(F)C(F)(F)C(F)(F)C(F)(F)F [decafluoro-butane]	−1.7 degrees Celcius
CCCCB(F)F [butyl-difluoro-borane]	35 degrees Celcius
CC(C(F)(F)F)C(F)(F)F [1,1,1,3,3,3-hexafluoro-2-methyl-propane]	21.5 degrees Celcius
C1CC12CC2 [spiropentane]	35 degrees Celcius
O=C(C(F)(F)F)C(F)(F)[N+](=O)[O-] [Pentafluoronitroacetone]	32.6 degrees Celcius
FC(F)(F)C(F)(F)C(F)(C(F)(F)F)C(F)(F)F [nonafluoro-2-trifluoromethyl-butane]	30.12 degrees Celcius
FC(F)I [difluoro-iodo-methane]	21.6 degrees Celcius
CC1CCC1 [methyl-cyclobutane]	36 degrees Celcius
C=COCC [ethyl-vinyl ether]	35 degrees Celcius
NC=O [formamide]	2.18 degrees Celcius

same assay, conditions: chemicals of Example 52; cited from earlier work

Structure (SMILES)	B.P.
ClCCCl [1,2, Dichloroethane, reference compound]	83 °C
CCCCCCCCC [Nonane]	151 °C
FC(F)(F)C(Cl)Br (stereo not shown) [Halothane]	50 °C
FC1(F)C(F)(F)C(F)(F)C2(F)C(F)(F)C(F)(F)C(F)(F)C(F)(F)C2(F)C1(F)F (stereo not shown) [Perfluorodecalin]	141 °C

same assay, conditions: cited from earlier work

Structure (SMILES)	Boiling Point
FC1(F)C(F)(F)C(F)(F)C(F)(F)C1(F)F [perfluorocyclopentane]	22.5 °C and 22 °C

experiment: not given; settings: at 25° C.; cited from earlier work

Structure (SMILES)	Vapor Pressure
ClCCCl [1,2, Dichloroethane, reference compound]	87 mmHg at 25 °C
